What was measured:
Leishmania infantum = test: Antileishmanial activity against Leishmania infantum MHOM/BR/1972/LD amastigotes infected in mouse Peritoneal macrophage cells assessed as inhibition of parasite growth incubated for 96 hrs by light microscopic analysis; format: functional, organism-based
[1] = Selectivity index, ratio of CC50 for cytotoxicity against mouse NCTC clone 929 cells assessed as inhibition of cell growth to IC50 for antileishmanial activity against Leishmania infantum MHOM/BR/1972/LD amastigotes infected in mouse Peritoneal macrophage cells assessed as inhibition of parasite growth; format: toxicity, cell-based; settings: read-out: Ratio CC50/IC50
[2] = Leishmania infantum, MHOM/BR/1972/LD, Peritoneal macrophage, 96 h, read-out: IC50

C=CCc1cc(OC)c(OCc2ccc(OC)cc2)c(Oc2ccc(CN3CCCC3)cc2OC)c1
IC50 (Leishmania infantum; [2]): > 50 µM

C=CCc1cc(OC)c(OC(C)=O)c(Oc2ccccc2OC)c1
selectivity ratio [1]: > 6.1

CCCCCCCCCCCCCCCCOP(=O)([O-])OCC[N+](C)(C)C [MILTEFOSINE]
selectivity ratio [1]: 18.4

C=CCc1cc(OC)cc(Oc2ccc(CC=C)cc2OC)c1
IC50 (Leishmania infantum; [2]): > 50 µM

CCCc1ccc(OCc2ccc(OC)cc2)c(Oc2ccc(CN3CCOCC3)cc2OC)c1
IC50 (Leishmania infantum; peritoneal macrophage): Not Active

COc1ccc(COc2c(OC)cc(CN3CCOCC3)cc2Oc2ccc(CN3CCOCC3)cc2OC)cc1
selectivity ratio [1]: 2.7

C=CCc1ccc(Oc2cc(CC=C)cc(OC)c2OCc2ccc(OC)cc2)c(OC)c1
IC50 (Leishmania infantum; [2]): > 50 µM

C=CCc1cc(OC)c(OC)c(Oc2ccccc2OC)c1
IC50 (Leishmania infantum; [2]): > 50 µM

CCCc1ccc(Oc2cc(CN3CCOCC3)cc(OC)c2OCc2ccc(OC)cc2)cc1
selectivity ratio [1]: > 13.1

CCCc1ccc(Oc2cc(CN3CCOCC3)cc(OC)c2OCc2ccc(OC)cc2)c(OC)c1
selectivity ratio [1]: > 12.2

C=CCc1ccc(Oc2cc(CCC)cc(OC)c2OCc2ccc(OC)cc2)c(OC)c1
IC50 (Leishmania infantum; [2]): > 50 µM

C=CCc1cc(OC)c(OCc2ccc(OC)cc2)c(Oc2ccccc2OC)c1
selectivity ratio [1]: > 8.3

C=CCc1ccc(Oc2cccc(OC)c2OCc2ccc(OC)cc2)c(OC)c1
IC50 (Leishmania infantum; peritoneal macrophage): Not Active

CCCc1cc(OC)c(OCc2ccc(OC)cc2)c(Oc2ccc(CN3CCOCC3)cc2OC)c1
selectivity ratio [1]: 9.7

C=CCc1ccc(Oc2cc(CC=C)cc(OC)c2OCCN2CCCC2)c(OC)c1
selectivity ratio [1]: 6

C=CCc1ccc(Oc2cccc(OC)c2OC)c(OC)c1
IC50 (Leishmania infantum; [2]): > 50 µM

CCCc1ccc(Oc2cc(CCC)cc(OC)c2OCc2ccc(OC)cc2)c(OC)c1
IC50 (Leishmania infantum; [2]): > 50 µM

C=CCc1ccc(Oc2cc(CC=C)cc(OC)c2OCCN2CCOCC2)c(OC)c1
selectivity ratio [1]: 6.6

CCCc1ccc(Oc2cc(CN3CCCCC3)cc(OC)c2OCc2ccc(OC)cc2)cc1
selectivity ratio [1]: 7.6

C=CCc1ccc(Oc2cc(CCC)cc(OC)c2O)c(OC)c1
IC50 (Leishmania infantum; [2]): > 50 µM

C=CCc1ccc(O)c(Oc2ccc(CC=C)cc2OC)c1
IC50 (Leishmania infantum; peritoneal macrophage): Not Active

C=CCc1ccc(Oc2cc(CC=C)cc(OC)c2O)cc1
IC50 (Leishmania infantum; peritoneal macrophage): Not Active

C=CCc1cc(OC)c(O)c(Oc2ccc(CN3CCCC3)cc2OC)c1
IC50 (Leishmania infantum; [2]): > 50 µM

C=CCc1cc(OC)c(OCc2ccc(OC)cc2)c(Oc2ccc(CN3CCOCC3)cc2OC)c1
selectivity ratio [1]: > 20.6

C=CCc1cc(OC)c(O)c(Oc2ccccc2OC)c1
IC50 (Leishmania infantum; [2]): > 50 µM

CCCc1ccc(Oc2cc(CN3CCOCC3)cc(OC)c2OCc2cc(OC)c(OC)c(OC)c2)c(OC)c1
selectivity ratio [1]: > 7.6

C=CCc1ccc(Oc2cc(CC=C)ccc2OCc2ccc(OC)cc2)c(OC)c1
IC50 (Leishmania infantum; peritoneal macrophage): Not Active

C=CCc1ccc(Oc2cccc(OC)c2OC(C)=O)c(OC)c1
IC50 (Leishmania infantum; [2]): > 50 µM

C=CCc1cc(OC)c(O)c(Oc2ccc(CN3CCOCC3)cc2OC)c1
IC50 (Leishmania infantum; [2]): > 50 µM

C=CCc1ccc(Oc2cc(CC=C)cc(OC)c2OCOC)c(OC)c1
IC50 (Leishmania infantum; [2]): > 50 µM

C=CCc1cc(OC)c(OC)c(Oc2ccc(CCC)cc2OC)c1
IC50 (Leishmania infantum; [2]): > 50 µM

C=CCc1ccc(Oc2cc(CC=C)cc(OC)c2OCc2ccc(OC)cc2)cc1
IC50 (Leishmania infantum; peritoneal macrophage): Not Active

C=CCc1cc(OC)c(OCc2ccc(OC)cc2)c(Oc2ccc(CCC)cc2OC)c1
IC50 (Leishmania infantum; [2]): > 50 µM

C=CCc1cc(OC)c(O)c(Oc2ccc(CCC)cc2OC)c1
IC50 (Leishmania infantum; [2]): > 50 µM

CCCc1ccc(Oc2cc(CN3CCOCC3)cc(OC)c2OCc2ccc(C(F)(F)F)cc2)c(OC)c1
selectivity ratio [1]: > 15.1

C=CCc1ccc(Oc2cccc(OC)c2O)c(OC)c1
IC50 (Leishmania infantum; [2]): > 50 µM

C=CCc1ccc(Oc2cc(CC=C)cc(OC)c2OCC(=O)N2CCCC2)c(OC)c1
selectivity ratio [1]: 2.6

CCCc1cc(OC)c(OCc2ccc(OC)cc2)c(Oc2ccc(CN3CCCCC3)cc2OC)c1
selectivity ratio [1]: 3.9

C=CCc1ccc(Oc2cc(CC=C)cc(OC)c2OCC(=O)N2CCOCC2)c(OC)c1
IC50 (Leishmania infantum; [2]): > 50 µM

From ChEMBL document CHEMBL5329158 (RSC Med Chem, 2023)
